Source: paper PMC9133015 (Nature Communications, 2022)
“And” between values parts separate entries of the source, which are not always exact repeats. Identical values can stand only once. Like-named read-outs stand apart in the source and are kept apart here.

Tests used:
DYRK1B = target: T1, DYRK1B (Homo sapiens, UniProt Q9Y463); assay: DYRKs kinase activity assay (33P-ATP, DYRKtide substrate): DYRK1B; format: biochemical
T1 construct: purchased Reaction Biology Corporation (assay service)

22Rv1 cells = assay: Real-time quantitative PCR (RRS1, GRWD1, CCNG2, YPEL3 mRNA); format: cell-based, human; details: replicates
DU145 cells = assay: as above; format: cell-based, human
Pharmacokinetic profiles = format: in vivo; details: SD rats

T1 sequence (Q9Y463 whole entry): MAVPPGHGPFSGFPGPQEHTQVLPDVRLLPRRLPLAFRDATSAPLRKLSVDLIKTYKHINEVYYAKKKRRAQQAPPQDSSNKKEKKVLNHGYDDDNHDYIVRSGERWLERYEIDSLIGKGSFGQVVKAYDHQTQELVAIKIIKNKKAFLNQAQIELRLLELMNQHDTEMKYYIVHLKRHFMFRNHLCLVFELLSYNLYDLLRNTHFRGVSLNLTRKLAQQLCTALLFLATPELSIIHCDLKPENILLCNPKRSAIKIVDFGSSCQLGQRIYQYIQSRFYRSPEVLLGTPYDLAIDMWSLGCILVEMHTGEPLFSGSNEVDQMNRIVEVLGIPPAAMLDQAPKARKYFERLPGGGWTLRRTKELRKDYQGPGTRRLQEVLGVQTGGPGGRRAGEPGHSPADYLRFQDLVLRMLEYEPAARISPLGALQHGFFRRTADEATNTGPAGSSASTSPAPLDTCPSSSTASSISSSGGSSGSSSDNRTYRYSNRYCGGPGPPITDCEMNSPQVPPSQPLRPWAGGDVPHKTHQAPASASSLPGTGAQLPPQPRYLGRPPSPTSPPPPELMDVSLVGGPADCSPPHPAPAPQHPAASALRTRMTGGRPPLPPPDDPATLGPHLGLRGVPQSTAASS

With CCN1CCN(C(=O)c2ccc(Nc3ncc(F)c(-c4ccc5nc(N(C)C)sc5c4)n3)nc2)CC1 [YK-2-69] the IC50 (DYRK1B) was 542 nM, the “% Inhibition DYRK1B” value (DYRK1B; 0.000762079 µM, duplicates) was 3.06% and 6.85% and the “% Inhibition DYRK1B” value (DYRK1B; 0.00228624 µM, duplicates) was 3.24%. The inhibition at 0.00228624 µM (DYRK1B; 0.00228624 µM, duplicates) was 5.73%, the “% Inhibition DYRK1B” value (DYRK1B; 0.00685871 µM, duplicates) was 11.00% and the inhibition at 0.00685871 µM (DYRK1B; 0.00685871 µM, duplicates) was 7.22%. The “% Inhibition DYRK1B” value (DYRK1B; 0.0205761 µM, duplicates) was 13.48%, the inhibition at 0.0205761 µM (DYRK1B; 0.0205761 µM, duplicates) was 9.47% and the “% Inhibition DYRK1B” value (DYRK1B; 0.0617284 µM, duplicates) was 24.87%. The inhibition at 0.0617284 µM (DYRK1B; 0.0617284 µM, duplicates) was 26.4%, the “% Inhibition DYRK1B” value (DYRK1B; 0.185185 µM, duplicates) was 44.86% and the inhibition at 0.185185 µM (DYRK1B; 0.185185 µM, duplicates) was 44.6%. For the same compound, the “% Inhibition DYRK1B” value (DYRK1B; 0.555556 µM, duplicates) was 57.04%, the inhibition at 0.555556 µM (DYRK1B; 0.555556 µM, duplicates) was 57.3% and the “% Inhibition DYRK1B” value (DYRK1B; 1.66667 µM, duplicates) was 62.26%. The “% Inhibition DYRK1B” value (DYRK1B; 5 µM, duplicates) was 64.81%, the inhibition at 5 µM (DYRK1B; 5 µM, duplicates) was 65.1% and the inhibition at 1.66667 µM (DYRK1B; read-out: % Inhibition DYRK1B, 1.66667 µM, duplicates) was 62.7%. The “selectivity over DYRK1B” value (DYRK1B; vs DYRK2) was 60 fold, the “Relative mRNA levels CCNG2” value (22Rv1 cells; 22Rv1, 1 μM) was 2.36 and 2.34 and 2.68 and the “Relative mRNA levels GRWD1” value (22Rv1 cells; 22Rv1, 1 μM) was 0.83 and 0.9 and 0.89. The “Relative mRNA levels RRS1” value (22Rv1 cells; 22Rv1, 1 μM) was 0.87 and 0.83 and 0.82, the “Relative mRNA levels YPEL3” value (22Rv1 cells; 22Rv1, 1 μM) was 1.18 and 1.26 and 1.19 and the “Relative mRNA levels CCNG2” value (22Rv1 cells; 22Rv1, 2 μM) was 4.36 and 5.2 and 4.62. The “Relative mRNA levels GRWD1” value (22Rv1 cells; 22Rv1, 2 μM) was 0.79 and 0.78 and 0.7, the “Relative mRNA levels RRS1” value (22Rv1 cells; 22Rv1, 2 μM) was 0.73 and 0.77 and 0.71 and the “Relative mRNA levels YPEL3” value (22Rv1 cells; 22Rv1, 2 μM) was 1.68 and 1.63 and 1.74. The “Relative mRNA levels CCNG2” value (22Rv1 cells; 22Rv1, 4 μM) was 8.94 and 9.9 and 8.92, the “Relative mRNA levels GRWD1” value (22Rv1 cells; 22Rv1, 4 μM) was 0.69 and 0.68 and 0.62 and the “Relative mRNA levels RRS1” value (22Rv1 cells; 22Rv1, 4 μM) was 0.63 and 0.68. The “Relative mRNA levels YPEL3” value (22Rv1 cells; 22Rv1, 4 μM) was 2.48 and 2.53 and 2.64, the “Relative mRNA levels CCNG2” value (DU145 cells; DU145, 2 μM) was 1.61 and 1.59 and 1.77 and the “Relative mRNA levels GRWD1” value (DU145 cells; DU145, 2 μM) was 0.86 and 0.88 and 0.9. The “Relative mRNA levels RRS1” value (DU145 cells; DU145, 2 μM) was 0.88 and 0.78 and 0.86, the “Relative mRNA levels YPEL3” value (DU145 cells; DU145, 2 μM) was 1.25 and 1.23 and 1.29 and the “Relative mRNA levels CCNG2” value (DU145 cells; DU145, 4 μM) was 1.7 and 1.66 and 1.89. The “Relative mRNA levels GRWD1” value (DU145 cells; DU145, 4 μM) was 0.79 and 0.71, the “Relative mRNA levels RRS1” value (DU145 cells; DU145, 4 μM) was 0.68 and 0.7 and 0.71 and the “Relative mRNA levels YPEL3” value (DU145 cells; DU145, 4 μM) was 2.68 and 2.63 and 2.74. The “Relative mRNA levels CCNG2” value (DU145 cells; DU145, 8 μM) was 1.91 and 1.83 and 2.04, the “Relative mRNA levels GRWD1” value (DU145 cells; DU145, 8 μM) was 0.58 and 0.63 and 0.67 and the “Relative mRNA levels RRS1” value (DU145 cells; DU145, 8 μM) was 0.58 and 0.65. For the same compound, the “Relative mRNA levels YPEL3” value (DU145 cells; DU145, 8 μM) was 3.48 and 3.53 and 3.64, the “Con. (individual rats NO.1-3)” value (Pharmacokinetic profiles; IV 1 mg/kg, 0.033 h, 1 mg/kg) was 1120 ng/mL and 712 ng/mL and the “Con. (individual rats NO.1-3)” value (Pharmacokinetic profiles; IV 1 mg/kg, 0.083 h, 1 mg/kg) was 959 ng/mL and 574 ng/mL. For the same compound, the “Con. (individual rats NO.1-3)” value (Pharmacokinetic profiles; IV 1 mg/kg, 0.25 h, 1 mg/kg) was 611 ng/mL and 402 ng/mL, the “Con. (individual rats NO.1-3)” value (Pharmacokinetic profiles; IV 1 mg/kg, 0.5 h, 1 mg/kg) was 480 ng/mL and 383 ng/mL and the “Con. (individual rats NO.1-3)” value (Pharmacokinetic profiles; IV 1 mg/kg, 1 h, 1 mg/kg) was 355 ng/mL and 310 ng/mL. For the same compound, the “Con. (individual rats NO.1-3)” value (Pharmacokinetic profiles; IV 1 mg/kg, 2 h, 1 mg/kg) was 199 ng/mL and 175 ng/mL, the “Con. (individual rats NO.1-3)” value (Pharmacokinetic profiles; IV 1 mg/kg, 4 h, 1 mg/kg) was 96.9 ng/mL and 91.7 ng/mL and the “Con. (individual rats NO.1-3)” value (Pharmacokinetic profiles; IV 1 mg/kg, 6 h, 1 mg/kg) was 63.9 ng/mL and 64.4 ng/mL. The “Con. (individual rats NO.1-3)” value (Pharmacokinetic profiles; IV 1 mg/kg, 8 h, 1 mg/kg) was 45.3 ng/mL and 36.2 ng/mL, the “Con. (individual rats NO.1-3)” value (Pharmacokinetic profiles; IV 1 mg/kg, 12 h, 1 mg/kg) was 14.4 ng/mL and the “Con. (individual rats NO.1-3)” value (Pharmacokinetic profiles; PO 10 mg/kg, 0.083 h, 10 mg/kg) was 9.74 ng/mL and 9.99 ng/mL. The “Con. (individual rats NO.1-3)” value (Pharmacokinetic profiles; PO 10 mg/kg, 0.25 h, 10 mg/kg) was 82.5 ng/mL and 106 ng/mL, the “Con. (individual rats NO.1-3)” value (Pharmacokinetic profiles; PO 10 mg/kg, 0.5 h, 10 mg/kg) was 228 ng/mL and 221 ng/mL and the “Con. (individual rats NO.1-3)” value (Pharmacokinetic profiles; PO 10 mg/kg, 1 h, 10 mg/kg) was 437 ng/mL and 376 ng/mL. For the same compound, the “Con. (individual rats NO.1-3)” value (Pharmacokinetic profiles; PO 10 mg/kg, 2 h, 10 mg/kg) was 729 ng/mL and 559 ng/mL, the “Con. (individual rats NO.1-3)” value (Pharmacokinetic profiles; PO 10 mg/kg, 4 h, 10 mg/kg) was 695 ng/mL and 609 ng/mL and the “Con. (individual rats NO.1-3)” value (Pharmacokinetic profiles; PO 10 mg/kg, 6 h, 10 mg/kg) was 538 ng/mL and 544 ng/mL. The “Con. (individual rats NO.1-3)” value (Pharmacokinetic profiles; PO 10 mg/kg, 8 h, 10 mg/kg) was 435 ng/mL and 507 ng/mL, the “Con. (individual rats NO.1-3)” value (Pharmacokinetic profiles; PO 10 mg/kg, 12 h, 10 mg/kg) was 220 ng/mL and 279 ng/mL and the “Con. (individual rats NO.1-3)” value (Pharmacokinetic profiles; PO 10 mg/kg, 24 h, 10 mg/kg) was 38.4 ng/mL and 66 ng/mL. For the same compound, the concentration at 0.033 h (Pharmacokinetic profiles; SD, rat, serum, iv, 1 mg/kg, IV 1 mg/kg, 0.033 h, read-out: Con. (individual rats NO.1-3)) was 1090 ng/mL, the concentration at 2 h (Pharmacokinetic profiles; SD, rat, serum, iv, 1 mg/kg, IV 1 mg/kg, 2 h, read-out: Con. (individual rats NO.1-3)) was 209 ng/mL and the concentration at 2 h (Pharmacokinetic profiles; SD, rat, serum, iv, 1 mg/kg, IV 1 mg/kg, 2 h, read-out: Con. Mean) was 194 ng/mL. The concentration at 4 h (Pharmacokinetic profiles; SD, rat, serum, iv, 1 mg/kg, IV 1 mg/kg, 4 h, read-out: Con. (individual rats NO.1-3)) was 97 ng/mL, the concentration at 4 h (Pharmacokinetic profiles; SD, rat, serum, iv, 1 mg/kg, IV 1 mg/kg, 4 h, read-out: Con. Mean) was 95.2 ng/mL and the concentration at 6 h (Pharmacokinetic profiles; SD, rat, serum, iv, 1 mg/kg, IV 1 mg/kg, 6 h, read-out: Con. (individual rats NO.1-3)) was 57.8 ng/mL. The concentration at 6 h (Pharmacokinetic profiles; SD, rat, serum, iv, 1 mg/kg, IV 1 mg/kg, 6 h, read-out: Con. Mean) was 62 ng/mL, the concentration at 8 h (Pharmacokinetic profiles; SD, rat, serum, iv, 1 mg/kg, IV 1 mg/kg, 8 h, read-out: Con. (individual rats NO.1-3)) was 43 ng/mL and the concentration at 8 h (Pharmacokinetic profiles; SD, rat, serum, iv, 1 mg/kg, IV 1 mg/kg, 8 h, read-out: Con. Mean) was 41.5 ng/mL. It also gave a concentration at 12 h (Pharmacokinetic profiles; SD, rat, serum, iv, 1 mg/kg, IV 1 mg/kg, 12 h, read-out: Con. (individual rats NO.1-3)) of 16.4 ng/mL and a concentration at 12 h (Pharmacokinetic profiles; SD, rat, serum, iv, 1 mg/kg, IV 1 mg/kg, 12 h, read-out: Con. Mean) of 16.9 ng/mL.
